Holding throughout (experiment): biochemical
Set-up in all cases: DiscoverX kinase panel, active-site competition binding (KINOMEscan type), percent of control at one concentration
Common to all, as to conditions: competition binding, percent of control

For one assay, the target named is STK33 (Homo sapiens, UniProt Q9BYT3). The text has this: (§1) To investigate the potential therapeutic benefit of inhibiting RIP1, we developed GNE684 or (S)-N-((S)-7-methoxy-1-methyl-2-oxo-2,3,4,5-tetrahydro-1H-pyrido[3,4-b]azepin-3-yl)-5-phenyl-6,7-dihydro-5H-pyrrolo[1,2-b][1,2,4]triazole-2-carboxamide with cross-species potency against RIP1, exquisite kinase selectivity, and favorable pharmacological properties (Fig. 1a–h, S1, Tables S1 and S2, SI file 1). […] (Fig. 1b, S1, and Table S1). […] GNE684 inhibited human RIP1 potently in vitro, and mouse and rat RIP1 with slightly less potency (Fig. 1d). Accordingly, it inhibited TNF-induced necroptosis in human HT-29, mouse L929, or rat H9c2 cells (Fig. 1e). The cellular potency of GNE684 was confirmed in a human whole blood assay using TBZ ([compound left out], IAP antagonist BV6, and pan-caspase inhibitor zVAD) or LZ (LPS plus zVAD) to trigger necroptosis and the release of IL-1α and IL-1β (Fig. 1f).
Chain of STK33 (Q9BYT3 whole entry): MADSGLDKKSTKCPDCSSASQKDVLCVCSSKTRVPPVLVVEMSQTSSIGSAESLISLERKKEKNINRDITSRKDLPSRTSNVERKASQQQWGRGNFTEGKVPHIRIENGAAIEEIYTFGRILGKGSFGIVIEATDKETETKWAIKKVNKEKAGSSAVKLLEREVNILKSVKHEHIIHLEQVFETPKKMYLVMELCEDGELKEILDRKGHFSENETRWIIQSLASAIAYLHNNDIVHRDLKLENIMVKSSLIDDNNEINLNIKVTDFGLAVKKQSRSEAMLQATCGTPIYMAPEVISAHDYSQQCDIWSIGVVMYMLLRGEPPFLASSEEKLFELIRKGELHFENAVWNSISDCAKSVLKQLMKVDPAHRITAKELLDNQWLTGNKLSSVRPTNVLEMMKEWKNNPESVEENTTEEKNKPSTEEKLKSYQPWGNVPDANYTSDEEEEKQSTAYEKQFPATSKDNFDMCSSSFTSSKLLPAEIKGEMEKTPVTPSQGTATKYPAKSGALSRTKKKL

Another assay concerns the target DYRK1B (Homo sapiens, UniProt Q9Y463).
Text: as §1

The target of a further assay is LTK (Homo sapiens, UniProt P29376).
Chain of LTK (P29376 whole entry): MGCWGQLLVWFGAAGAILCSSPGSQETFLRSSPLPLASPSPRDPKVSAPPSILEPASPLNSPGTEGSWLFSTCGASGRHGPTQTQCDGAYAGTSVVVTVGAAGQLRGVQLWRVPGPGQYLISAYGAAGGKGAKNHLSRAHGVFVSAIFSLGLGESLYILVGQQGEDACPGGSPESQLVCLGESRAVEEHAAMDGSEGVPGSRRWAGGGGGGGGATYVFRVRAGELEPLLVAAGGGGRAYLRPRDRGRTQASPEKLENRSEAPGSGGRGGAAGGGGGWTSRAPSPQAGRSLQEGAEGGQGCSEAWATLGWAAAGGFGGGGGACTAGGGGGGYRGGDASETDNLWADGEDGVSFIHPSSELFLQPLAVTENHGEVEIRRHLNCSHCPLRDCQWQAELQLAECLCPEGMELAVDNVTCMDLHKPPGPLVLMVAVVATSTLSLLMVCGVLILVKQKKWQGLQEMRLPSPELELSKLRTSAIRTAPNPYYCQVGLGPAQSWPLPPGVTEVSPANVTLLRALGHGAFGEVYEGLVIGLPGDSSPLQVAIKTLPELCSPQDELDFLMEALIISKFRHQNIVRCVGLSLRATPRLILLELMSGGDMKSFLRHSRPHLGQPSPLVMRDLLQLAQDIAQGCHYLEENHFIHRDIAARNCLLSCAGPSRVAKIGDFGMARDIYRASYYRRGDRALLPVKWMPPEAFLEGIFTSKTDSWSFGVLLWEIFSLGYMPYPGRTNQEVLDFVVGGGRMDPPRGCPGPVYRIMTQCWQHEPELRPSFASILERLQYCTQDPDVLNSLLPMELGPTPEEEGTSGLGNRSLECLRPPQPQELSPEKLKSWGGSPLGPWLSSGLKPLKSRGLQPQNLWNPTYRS
Text: as §1

Chain of DYRK1B (Q9Y463 whole entry): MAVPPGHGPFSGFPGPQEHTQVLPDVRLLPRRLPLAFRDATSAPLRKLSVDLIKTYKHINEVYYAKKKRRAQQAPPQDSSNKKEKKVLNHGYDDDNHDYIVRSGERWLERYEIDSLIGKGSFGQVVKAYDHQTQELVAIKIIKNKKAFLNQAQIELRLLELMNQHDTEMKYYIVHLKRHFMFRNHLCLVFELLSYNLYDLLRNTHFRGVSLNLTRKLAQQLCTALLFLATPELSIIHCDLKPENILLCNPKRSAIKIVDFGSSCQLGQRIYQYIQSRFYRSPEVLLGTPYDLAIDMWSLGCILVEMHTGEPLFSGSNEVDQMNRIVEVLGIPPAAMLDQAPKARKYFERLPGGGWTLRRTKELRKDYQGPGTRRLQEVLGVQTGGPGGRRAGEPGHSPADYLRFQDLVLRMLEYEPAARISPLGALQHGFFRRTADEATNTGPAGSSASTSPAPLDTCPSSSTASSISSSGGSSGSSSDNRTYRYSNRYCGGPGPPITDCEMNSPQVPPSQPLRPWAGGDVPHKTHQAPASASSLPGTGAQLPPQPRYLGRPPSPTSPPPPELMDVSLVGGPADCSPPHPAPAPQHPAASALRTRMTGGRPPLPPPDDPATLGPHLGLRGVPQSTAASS

With `COc1cc2c(cn1)N(C)C(=O)[C@@H](NC(=O)c1nc3n(n1)[C@H](c1ccccc1)CC3)CC2` [GNE684, (S)-N-((S)-7-methoxy-1-methyl-2-oxo-2,3,4,5-tetrahydro-1H-pyrido[3,4-b]azepin-3-yl)-5-phenyl-6,7-dihydro-5H-pyrrolo[1,2-b][1,2,4]triazole-2-carboxamide], the remaining binding at 10 µM at STK33 turned out to be 86%; at DYRK1B, 54%; at LTK, 93%.

Values taken from publication PMC7206119, “RIP1 inhibition blocks inflammatory diseases but not tumor growth or metastases” (Cell Death and Differentiation, 2019).
